{"source": "patent US6989435B2", "about": "“Compounds and methods to inhibit or augment an inflammatory response” (Cambridge University Technical Services Ltd., priority 1997, dated 2006)", "key": {"[1]": {"test_system": "MIP1α induced THP-1 migration", "experiment": "Trans-well THP-1 migration assay, MIP1α as chemoattractant", "assay_type": "cell-based, human", "settings": "Table 4(b); 100 μM peptide; n.s. = no statistically significant inhibition", "protocol": "(§1) FIG. 1 is a schematic of the trans-well migration assay. In most experiments, the peptide (wavy line) is added to the upper well with about 50,000 cells (O). The upper and lower wells are separated by a 5 μm or 8 μm pore size PVP-free membrane (- - - -). Chemokine (●) is added to the lower well. After 4 hours, the number of cells that have migrated through the membrane are measured (◯ in lower well).\nTo determine whether an agent inhibits a chemokine-induced activity, such as macrophage recruitment, varying amounts of the agent are mixed with cells in the presence of a known chemoattractant. For example, a range of known concentrations of an agent, e.g., a chemokine peptide, is incubated with a defined number (e.g., 10^4-10^6) of human THP-1 monocyte cells in individual wells of the top compartment of a trans-well plate. […] A standard curve consisting of a two-fold dilution series of THP-1 cells (in 29 μl) is prepared to accurately quantify the number of cells that have migrated. […] Absorbance of converted dye is measured at a wavelength of 595 nm using an ELISA plate reader. The number of migrated cells in each well is then determined by interpolation of the standard curve (see also Imai et al., J. Biol. Chem., 272, 15036 (1997)). […]"}, "[2]": {"test_system": "MCP-1 induced THP-1 migration", "experiment": "Trans-well THP-1 migration assay, MCP-1 as chemoattractant", "assay_type": "cell-based, human", "settings": "concentrations above 50 μM", "protocol": "as §1\nTo determine whether an agent inhibits a chemokine-induced activity, such as macrophage recruitment, varying amounts of the agent are mixed with cells in the presence of a known chemoattractant. For example, a range of known concentrations of an agent, e.g., a chemokine peptide, is incubated with a defined number (e.g., 10^4-10^6) of human THP-1 monocyte cells in individual wells of the top compartment of a trans-well plate. Chemokine (such as MCP-1, MIP1α, IL8 or SDF-1α), at a concentration known to cause significant migration of THP-1 cells in the trans-well migration assay, is placed in the lower compartment (FIG. 1). Cells are then incubated at 37° C. for a period sufficient to allow migration, e.g., 4 hours. After incubation, the cells are gently removed from the top of the filter with a pipette, 20 μl of 20 mM EDTA in simple PBS is added into each top well, and incubated for 20 minutes at 4° C. The filter is carefully flushed with media using a gentle flow, and removed. A standard curve consisting of a two-fold dilution series of THP-1 cells (in 29 μl) is prepared to accurately quantify the number of cells that have migrated. Migrated cells are stained with 3 μl of MTT stock dye solution which is added directly into each well (5 mg/ml in RPMI-1640 without phenol red, Sigma Chemical Co.) and incubated at 37° C. for 4 hours. The media is carefully aspirated from each well, and the converted dye is solubilized by 20 μl of DMSO. Absorbance of converted dye is measured at a wavelength of 595 nm using an ELISA plate reader. The number of migrated cells in each well is then determined by interpolation of the standard curve (see also Imai et al., J. Biol. Chem., 272, 15036 (1997)).\nAny method suitable for counting cells can be used, for example, counting with a hemocytometer, incubation of the cells with MTT (see above), or FACS analysis. A negative control assay is also performed, using TGF-β or another non-chemokine chemoattractant (e.g., IL1β or TNFα). To assess whether the agent is cytotoxic, the same concentrations of agent are incubated with THP-1 cells. Agents which 1) are not cytotoxic at levels which inhibit migration, 2) are ineffective at inhibiting the negative control-induced migration, and 3) reduce or inhibit chemokine-induced THP-1 migration, are agents which fall within the scope of the invention.\nFor this assay, THP-1 cells were maintained at a density of 4×10^5 cells per ml in RPMI-1640 supplemented with 10% fetal calf serum+20 μM 2-mercaptoethanol. Chemotaxis was induced in a 96-well disposable chemotaxis chamber fitted with a […] polycarbonate filter (PVP free, ChemoTX, Neuroprobe Inc., Cabin John). Twenty-nine μl of chemoattractant (recombinant human chemokine; 50 ng/ml, i.e., 5.9 nM) or control (100 ng/ml TGFβ) was added to the lower compartment of each well. The framed filter was aligned with the holes in the corner of the filter frame and placed over the wells. Five×10^4 THP-1 cells in 25 μl of RPMI-1640 culture media were added to the upper compartment. Peptides were dissolved in Milli Q water and then serially diluted in culture medium. In most cases, the serially diluted peptides were added to the upper compartment of the chemotaxis chamber. The chamber was incubated at 37° C. in a humidified atmosphere of 5% CO2 for 4 hours.\nAfter incubation, the cells were gently removed from the top of the filter with a pipette, 20 μl of 20 mM EDTA in PBS was added into each top well, and the mixture was incubated for 20 minutes at 4° C. The filter was then carefully flushed with media using a gentle flow, and removed. […]"}}}
{"sequence": "EICADPKQKWVQ [Peptide 3]", "values": [{"measurement": "Extent of inhibition of THP-1 migration at 100 μM, MIP1α", "setting": "[1]", "result": 99, "unit": "%"}, {"measurement": "effect on MCP-1 induced THP-1 migration at concentrations above 50 μM", "setting": "[2]", "result": "abolished all of the MCP-1 induced THP-1 migration"}]}
